# Measurements as given in ChEMBL document CHEMBL1201862, “PubChem BioAssay data set” (2004).
# The source made the active and inactive calls.
# Legend:
# [1] = THP-1 cell cytotoxicity, dose response, cytotoxicity control for Vif-APOBEC3G degradation inhibitor project, THP-1 cells (AID 1117359); format: functional; settings: Human immunodeficiency virus 1, THP-1
# Protein Tat = target: T1, Protein Tat (Human immunodeficiency virus type 1 group M subtype B (isolate HXB2)(HIV-1), UniProt P04608); format: functional;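 note: tat binding to TAR RNA read out by fluorescence polarization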
# T1 sequence (P04608 whole entry): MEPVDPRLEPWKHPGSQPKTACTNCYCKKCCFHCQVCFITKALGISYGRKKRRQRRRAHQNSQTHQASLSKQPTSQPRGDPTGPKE
# [2] = target: T2, Mannose-6-phosphate isomerase (Homo sapiens, UniProt P34949); assay: human PMI inhibitors, high substrate, primary screen, biochemical, fluorescence intensity, high mannose 6-phosphate (AID 1220)
# T2 sequence (P34949 whole entry): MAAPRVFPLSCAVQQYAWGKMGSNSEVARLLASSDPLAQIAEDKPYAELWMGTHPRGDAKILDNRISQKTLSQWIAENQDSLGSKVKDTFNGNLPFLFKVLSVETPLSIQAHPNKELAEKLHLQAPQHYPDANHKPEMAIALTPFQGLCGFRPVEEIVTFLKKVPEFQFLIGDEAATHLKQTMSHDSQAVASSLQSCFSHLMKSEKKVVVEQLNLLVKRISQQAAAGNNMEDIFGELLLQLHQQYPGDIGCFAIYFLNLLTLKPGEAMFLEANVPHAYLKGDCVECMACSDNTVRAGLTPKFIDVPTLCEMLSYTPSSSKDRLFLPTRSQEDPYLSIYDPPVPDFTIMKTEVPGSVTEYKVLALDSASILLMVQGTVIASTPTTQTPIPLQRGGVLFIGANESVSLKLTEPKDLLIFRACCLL
# cells = format: functional
# HT-1080 = assay: cytotoxicity in HT1080 fibrosarcoma cells, cell-based, fluorescence readout (AID 620); format: functional; settings: Homo sapiens
# [3] = target: Luciferin 4-monooxygenase (Photinus pyralis, UniProt P08659); assay: Counter Screen for Luciferase-based Assay Positives. [Related pubchem assays: 620, 618, 411 ]
# Sequence of Luciferin 4-monooxygenase (P08659 whole entry): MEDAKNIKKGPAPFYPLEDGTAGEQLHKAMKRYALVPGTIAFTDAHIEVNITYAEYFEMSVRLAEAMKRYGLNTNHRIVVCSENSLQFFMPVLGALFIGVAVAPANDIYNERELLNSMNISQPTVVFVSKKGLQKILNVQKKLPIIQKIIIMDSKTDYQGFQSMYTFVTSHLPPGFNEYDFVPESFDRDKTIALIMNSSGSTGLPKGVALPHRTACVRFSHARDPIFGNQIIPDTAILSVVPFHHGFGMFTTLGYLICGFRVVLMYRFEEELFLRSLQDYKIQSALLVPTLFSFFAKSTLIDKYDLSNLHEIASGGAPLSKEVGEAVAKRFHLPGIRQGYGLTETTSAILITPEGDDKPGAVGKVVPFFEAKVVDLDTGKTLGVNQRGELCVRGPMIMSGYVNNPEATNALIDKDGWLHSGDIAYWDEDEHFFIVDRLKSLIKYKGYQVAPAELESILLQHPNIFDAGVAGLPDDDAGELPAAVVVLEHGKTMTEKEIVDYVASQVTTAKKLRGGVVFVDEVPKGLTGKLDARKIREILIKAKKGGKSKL
# [4] = target: T3, Sentrin-specific protease 8 (Homo sapiens, UniProt Q96LD8); format: functional
# T3 sequence (Q96LD8 whole entry): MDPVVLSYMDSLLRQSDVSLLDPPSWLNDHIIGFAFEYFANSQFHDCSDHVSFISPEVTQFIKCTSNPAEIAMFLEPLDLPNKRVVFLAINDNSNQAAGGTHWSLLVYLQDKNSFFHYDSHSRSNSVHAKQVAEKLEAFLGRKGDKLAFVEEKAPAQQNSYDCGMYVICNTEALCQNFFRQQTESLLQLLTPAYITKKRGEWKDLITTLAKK
# [5] = target: T3, Sentrin-specific protease 8; format: functional; remark: listed apart in the source
# Protein RecA = target: T4, Protein RecA (Mycobacterium tuberculosis, UniProt P9WHJ3); assay: Fluorescence Cell-Free Homogeneous Dose Retest to Identify Inhibitors of RecA-Intein Splicing Activity. [Related pubchem assays (depositor defined):AID2097, AID2223, AID489010, AID492950]; format: functional
# T4 sequence (P9WHJ3 whole entry): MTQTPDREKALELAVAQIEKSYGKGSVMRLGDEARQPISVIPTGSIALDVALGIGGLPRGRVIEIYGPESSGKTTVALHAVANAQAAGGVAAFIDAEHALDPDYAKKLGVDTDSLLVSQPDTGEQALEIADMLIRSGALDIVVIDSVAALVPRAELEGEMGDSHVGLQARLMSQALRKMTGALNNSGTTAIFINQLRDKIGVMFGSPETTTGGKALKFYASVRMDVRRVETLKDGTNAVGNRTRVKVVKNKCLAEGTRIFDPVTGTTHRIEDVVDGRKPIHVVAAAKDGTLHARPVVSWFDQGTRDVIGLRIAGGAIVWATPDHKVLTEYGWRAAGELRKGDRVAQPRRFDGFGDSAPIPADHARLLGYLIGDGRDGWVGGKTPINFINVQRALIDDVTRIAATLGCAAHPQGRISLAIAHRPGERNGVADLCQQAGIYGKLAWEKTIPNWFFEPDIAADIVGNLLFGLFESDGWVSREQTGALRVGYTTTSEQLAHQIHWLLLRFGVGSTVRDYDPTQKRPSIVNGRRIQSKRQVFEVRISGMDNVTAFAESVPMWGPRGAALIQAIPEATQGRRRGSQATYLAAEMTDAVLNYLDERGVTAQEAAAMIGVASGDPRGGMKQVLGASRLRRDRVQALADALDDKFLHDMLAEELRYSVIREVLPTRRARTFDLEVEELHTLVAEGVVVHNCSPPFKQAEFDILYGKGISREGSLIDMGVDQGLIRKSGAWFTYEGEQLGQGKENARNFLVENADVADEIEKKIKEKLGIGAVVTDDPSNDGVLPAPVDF
# [6] = target: T5, Replicative DNA helicase DnaB (Mycobacterium tuberculosis, UniProt P9WMR3); assay: DnaB intein splicing inhibitors, dose response, biochemical, cell-free fluorescence (AID 449749); format: functional
# T5 sequence (P9WMR3 whole entry): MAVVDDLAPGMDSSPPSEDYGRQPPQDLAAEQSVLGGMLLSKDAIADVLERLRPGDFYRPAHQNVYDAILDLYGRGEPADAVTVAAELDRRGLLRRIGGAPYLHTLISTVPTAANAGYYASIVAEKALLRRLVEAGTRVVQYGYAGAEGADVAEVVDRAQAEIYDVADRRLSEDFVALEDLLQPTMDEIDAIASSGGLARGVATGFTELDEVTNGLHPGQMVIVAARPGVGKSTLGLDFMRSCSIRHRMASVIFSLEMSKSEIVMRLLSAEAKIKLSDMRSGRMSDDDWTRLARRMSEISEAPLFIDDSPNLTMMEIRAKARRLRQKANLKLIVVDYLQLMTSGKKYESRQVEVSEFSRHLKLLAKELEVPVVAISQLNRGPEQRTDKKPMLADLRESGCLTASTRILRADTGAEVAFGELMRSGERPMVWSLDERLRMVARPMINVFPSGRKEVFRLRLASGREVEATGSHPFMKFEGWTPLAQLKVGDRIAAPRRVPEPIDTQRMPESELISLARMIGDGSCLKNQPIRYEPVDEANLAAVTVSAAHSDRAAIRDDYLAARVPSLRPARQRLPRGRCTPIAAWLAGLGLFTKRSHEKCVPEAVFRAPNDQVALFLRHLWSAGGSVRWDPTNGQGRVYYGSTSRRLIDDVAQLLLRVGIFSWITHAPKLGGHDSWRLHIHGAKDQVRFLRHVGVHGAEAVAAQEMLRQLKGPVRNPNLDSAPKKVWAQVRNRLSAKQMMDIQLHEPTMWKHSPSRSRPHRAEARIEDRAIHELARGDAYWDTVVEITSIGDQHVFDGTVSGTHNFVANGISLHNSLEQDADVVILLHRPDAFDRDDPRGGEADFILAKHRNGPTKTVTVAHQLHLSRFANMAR
# [7] = target: T6, Ubiquitin-conjugating enzyme E2 N (Homo sapiens, UniProt P61088); format: functional
# T6 sequence (P61088 whole entry): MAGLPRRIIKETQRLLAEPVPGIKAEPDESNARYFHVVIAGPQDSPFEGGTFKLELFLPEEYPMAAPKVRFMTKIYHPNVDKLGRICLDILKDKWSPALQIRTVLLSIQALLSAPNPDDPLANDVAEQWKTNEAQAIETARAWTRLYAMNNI
# [8] = target: T7, Rac GTPase-activating protein 1 (Homo sapiens, UniProt Q9H0H5); assay: MgcRacGAP GTPase-activating activity inhibitors, confirmation, biochemical, ADP Hunter fluorescence, primary and confirmatory (AID 624330); format: functional
# T7 sequence (Q9H0H5 whole entry): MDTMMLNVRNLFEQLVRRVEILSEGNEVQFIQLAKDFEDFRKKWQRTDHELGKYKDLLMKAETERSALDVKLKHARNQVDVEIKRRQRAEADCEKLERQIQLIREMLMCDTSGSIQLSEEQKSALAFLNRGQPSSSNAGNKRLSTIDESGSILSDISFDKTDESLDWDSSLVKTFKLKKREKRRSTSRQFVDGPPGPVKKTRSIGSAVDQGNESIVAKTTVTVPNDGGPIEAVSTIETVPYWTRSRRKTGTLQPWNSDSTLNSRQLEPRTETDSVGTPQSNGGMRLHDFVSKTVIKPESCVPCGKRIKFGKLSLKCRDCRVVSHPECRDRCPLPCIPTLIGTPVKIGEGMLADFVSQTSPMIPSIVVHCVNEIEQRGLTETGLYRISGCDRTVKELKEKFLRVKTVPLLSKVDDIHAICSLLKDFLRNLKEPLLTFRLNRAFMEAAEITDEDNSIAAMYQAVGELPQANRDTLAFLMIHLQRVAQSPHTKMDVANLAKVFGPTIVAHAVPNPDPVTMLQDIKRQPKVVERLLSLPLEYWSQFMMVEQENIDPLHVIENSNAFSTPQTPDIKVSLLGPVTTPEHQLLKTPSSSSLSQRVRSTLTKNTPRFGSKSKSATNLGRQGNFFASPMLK
# [9] = target: T8, Small ubiquitin-related modifier 1 (Homo sapiens, UniProt P63165); assay: inhibitors of SUMO1 peptide binding, dose response, biochemical, fluorescence polarization, uHTS hits (AID 624382); format: functional; settings: read-out: IC50_Mean
# T8 sequence (P63165 whole entry): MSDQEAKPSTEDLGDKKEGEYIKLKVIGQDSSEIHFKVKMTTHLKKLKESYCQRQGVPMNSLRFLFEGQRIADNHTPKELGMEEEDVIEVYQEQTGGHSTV
# [10] = target: T8, Small ubiquitin-related modifier 1; assay: inhibitors of SUMO1 partner interactions, dose response, biochemical, FRET (AID 624383); format: functional; settings: read-out: IC50_Mean
# Bcl-2-related protein A1 = target: T9, Bcl-2-related protein A1 (Mus musculus, UniProt Q07440); format: functional;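 note: confirmatory dose–response counterscreen on Bfl-1, used to check hits from a UBC13 polyubiquitin inhibitor campaign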
# T9 sequence (Q07440 whole entry): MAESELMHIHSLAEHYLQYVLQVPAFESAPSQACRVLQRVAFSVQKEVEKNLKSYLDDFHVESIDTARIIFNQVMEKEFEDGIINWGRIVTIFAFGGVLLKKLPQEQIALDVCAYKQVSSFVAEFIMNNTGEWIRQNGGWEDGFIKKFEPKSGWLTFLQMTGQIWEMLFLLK
# [11] = target: T10, DNA repair and recombination protein RAD54-like (Homo sapiens, UniProt Q92698); assay: inhibitors of human RAD54 branch migration, confirmation, biochemical, fluorescence, cherry-picked samples, dose series (AID 651657); format: functional
# T10 sequence (Q92698 whole entry): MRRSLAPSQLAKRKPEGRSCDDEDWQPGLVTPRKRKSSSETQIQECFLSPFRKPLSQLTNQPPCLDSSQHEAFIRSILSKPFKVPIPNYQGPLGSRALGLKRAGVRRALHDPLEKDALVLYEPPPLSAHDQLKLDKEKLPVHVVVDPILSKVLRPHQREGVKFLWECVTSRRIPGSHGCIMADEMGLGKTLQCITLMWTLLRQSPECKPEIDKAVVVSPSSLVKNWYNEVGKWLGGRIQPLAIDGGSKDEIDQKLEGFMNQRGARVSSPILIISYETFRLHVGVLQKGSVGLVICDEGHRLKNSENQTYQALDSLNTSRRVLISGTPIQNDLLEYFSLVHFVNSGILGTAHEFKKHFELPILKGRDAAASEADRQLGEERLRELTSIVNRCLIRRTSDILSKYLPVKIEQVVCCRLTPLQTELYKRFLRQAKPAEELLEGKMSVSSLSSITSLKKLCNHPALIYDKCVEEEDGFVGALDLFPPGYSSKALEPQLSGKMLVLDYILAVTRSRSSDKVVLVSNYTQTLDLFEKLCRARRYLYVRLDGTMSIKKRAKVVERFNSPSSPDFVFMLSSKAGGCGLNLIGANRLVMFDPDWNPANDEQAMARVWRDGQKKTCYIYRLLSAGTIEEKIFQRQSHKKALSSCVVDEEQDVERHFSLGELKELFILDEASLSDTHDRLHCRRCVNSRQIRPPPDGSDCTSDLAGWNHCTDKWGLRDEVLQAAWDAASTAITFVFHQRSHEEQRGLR
# [12] = C. albicans growth with fluconazole, confirmation, fluorescence, retest (AID 2467); format: functional, cell-based
# [13] = target: T6, Ubiquitin-conjugating enzyme E2 N; format: functional; remark: listed apart in the source
# [14] = NIH-3T3 fibroblast cytotoxicity, dose response, cytotoxicity control, cell-based, fluorescence, Alamar Blue, secondary assay (AID 2327); format: functional;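 note: NIH-3T3 mouse fibroblasts cultured with fluconazole at 8 µg/mL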
structure (smiles),measurement,setting,value
CNC(=O)[C@@H]1C[C@H]1[C@@H](NC(=O)OCc1ccccc1)c1ccccc1,CC50,[1],> 40 µM (active)
same,IC50,Protein Tat,> 100 µM (active)
CCOC(=O)N1CCN(c2cc(NCCO)c([N+](=O)[O-])c3nonc23)CC1,IC50,[2],> 50 µM (not active)
COc1ccc(C2=Nc3ccccc3OC2)cc1,IC50,cells,3.76 µM (active)
same,EC50,HT-1080,> 50 µM (not active)
same,EC50,[3],< 0.2 µM (active)
O=C1CC(c2ccccc2)=NN1c1ccc([N+](=O)[O-])cc1,IC50,[4],52.3 µM (active)
same,IC50,[5],33.2 µM (active)
same,EC50,Protein RecA,4.05 µM (active)
same,AC50,[6],5.46 µM (active)
O=C(Nc1ccc(C2=NCCN2)cc1)c1ccc(C(=O)Nc2ccc(C3=NCCN3)cc2)c(Cl)c1,IC50,[7],3.32 µM (active)
same,IC50,[8],35.8 µM (active)
same,IC50,[9],> 66.6 µM (inactive)
same,IC50,[10],4.61 µM (active)
same,IC50,Bcl-2-related protein A1,9.71 µM (active)
same,AC50,[11],13.8 µM (active)
same,EC50,[12],0.157 µM (active)
same,IC50,[13],1.7 µM (active)
same,EC50,[14],> 160 µM (inactive)
COC/C=C/C1=CC2=CC(=O)C(C)(OC(=O)c3cnc4ccccc4n3)C(=O)C2=CN1CCCOC(C)C (stereo not drawn),IC50,[4],8.09 µM (active)
same,IC50,[5],19.9 µM (active)
COc1cccc(C(=O)NCCC2=CCCCC2)c1,EC50,HT-1080,> 50 µM (not active)
same,EC50,[3],< 0.2 µM (active)
C=CCN(CC=C)S(=O)(=O)c1ccc(C(=O)Nc2nnc(COC)o2)cc1,CC50,[1],15.4 µM (active)
same,EC50,[14],63.3 µM (active)
O=C1NC(=O)C(Nc2ccccc2)C(=O)N1,IC50,[4],28.5 µM (active)
same,IC50,[5],22.5 µM (active)
O=C(CNc1ccc2ccccc2c1)N/N=C/c1ccc(C(=O)O)cc1,IC50,[2],> 50 µM (not active)
